Experimental data: the NIST ThermoML archive (doi:10.1016/j.jct.2013.05.036)

Settings: 101.33 kPa, Liquid, Levitation methods

[Mo] [molybdenum]
Settings	viscosity [mPa·s]
2573 K	6.7
2600 K	6.6
2650 K	6.2
2700 K	5.9
2750 K	5.7
2800 K	5.4
2850 K	5.2
2896 K	5
2900 K	5
2950 K	4.8
3000 K	4.6
3050 K	4.5
3100 K	4.3
3150 K	4.2
3213 K	4

[Os] [osmium]
Settings	viscosity [mPa·s]
3265 K	7.4
3290 K	7.2
3306 K	7
3315 K	7
3340 K	6.7
3365 K	6.5
3390 K	6.3
3415 K	6.1
3440 K	6
3465 K	5.8
3490 K	5.6
3515 K	5.5
3542 K	5.3

[Re] [rhenium]
Settings	viscosity [mPa·s]
3034 K	14.9
3050 K	14.6
3100 K	13.9
3150 K	13.2
3200 K	12.5
3250 K	12
3300 K	11.4
3350 K	10.9
3400 K	10.4
3450 K	10
3459 K	9.9
3500 K	9.6
3550 K	9.2
3600 K	8.8
3650 K	8.5
3675 K	8.4

[Ta] [tantalum]
Settings	viscosity [mPa·s]
2880 K	13.4
2900 K	13.1
2950 K	12.4
3000 K	11.7
3050 K	11.1
3100 K	10.6
3150 K	10.1
3200 K	9.6
3250 K	9.2
3293 K	8.9
3300 K	8.8
3350 K	8.4
3400 K	8.1
3450 K	7.8
3500 K	7.5
3514 K	7.4

[W] [tungsten]
Settings	viscosity [mPa·s]
3155 K	16.7
3200 K	15.7
3250 K	14.6
3300 K	13.7
3350 K	12.8
3400 K	12
3450 K	11.3
3500 K	10.6
3550 K	10
3600 K	9.4
3634 K	9.1
3695 K	8.5
